Results taken from patent US4190647A, “Polypeptides and methods” (Sloan-Kettering Institute for Cancer Research, priority 1979, dated 1980).
Where a SMILES comes first, the peptide text is derived from it.

Tests used:
chicken bone marrow = test: induction of Th-1 (T-cell) antigen on chicken bone marrow, cytotoxicity assay; type: cell-based; details: peptide at 1 μg/mil (method text: 0.1 μg/ml); control incubations subtracted
Method: To determine the pharmacological activity and characteristics of these pentapeptides, use was made of the induction of Th-1 (T-cell) antigen on chicken bone marrow for use as an assay of the peptides at a concentration of 1 μg/mil. This method is described in Science, Brand et al, Vol. 193, pp. 319-321, July, 1976. In this method, pooled cells from femur and tibiotarsus of newly hatched chicks of strain SC (Hy-Line) are fractionated by ultracentrifugation on a five-layer discontinuous bovine serum albumin (BSA) gradient (11). Cells from each interface are washed and suspended for incubation at a concentration of 5×10^6 cells per milliliter with the peptide (0.1 μg/ml) in RPMI 1630 medium supplemented with 15 mM Hepes, 5 percent y-globulin-free fetal calf serum, deoxyribonuclease (14 to 18 unit/ml), heparin (5 unit/ml), penicillin (100 unit/ml), and streptomycin (100 μg/ml). Controls are incubated with BSA (1 μg/ml) or medium alone. After incubation, the cells are tested in the cytotoxicity assay using chicken and guinea pig complement fractions. The proportion of Bu-1^+ or Th-1^+ cells in each layer are calculated as a cytotoxicity index, 100 (a-b)/a, where a and b are the percentages of viable cells in the complement control and test preparation, respectively. The percentage of cells induced is obtained by subtracting the mean values in the control incubations without inducing agents (usually 1 to 3 percent) from those of the test inductions.

[1] = system: precursors present in bone marrow or spleen; details: precursors from bone marrow or spleen; cited from earlier work
[2] = activity of terminally substituted pentapeptides in Twomey solution compared with the basic pentapeptide of Example I; type: cell-based

| Compound | % Induction of Th-1 (T-cell) antigen on chicken bone marrow (chicken bone marrow) [%] | also measured |
| --- | --- | --- |
| C[C@H](NC(=O)[C@H](CC(N)=O)NC(=O)[C@@H](N)Cc1ccc(O)cc1)C(=O)N[C@@H](CCC(N)=O)C(=O)N[C@@H](CCCCN)C(=O)O [Example XXIV, H2 N-TYR-ASN-ALA-GLN-LYS-COOH] (H-YNAQK-OH) | 21 |  |
| CC[C@H](C)[C@H](NC(=O)[C@H](CC(N)=O)NC(=O)[C@H](C)N)C(=O)N[C@@H](CCC(N)=O)C(=O)N[C@@H](CCCCN)C(=O)O [Example XXII, H2 N-ALA-ASN-ILE-GLN-LYS-COOH] (H-ANIQK-OH) | 12 |  |
| Ubiquitin |  | concentration inducing in vitro differentiation of both T-cell and B-cell immunocytes [1]: nanogram concentrations |
| CC[C@H](C)[C@H](NC(=O)[C@H](CC(N)=O)NC(=O)[C@H](Cc1ccc(O)cc1)NC(C)=O)C(=O)N[C@@H](CCC(N)=O)C(=O)N[C@@H](CCCCN)C(=O)O [Example III, CH3 CONH-TYR-ASN-ILE-GLN-LYS-COOH] (Ac-YNIQK-OH) |  | activity relative to the basic pentapeptide of Example I ([2]; 1 μg/ml in 14% Twomey solution): maximum and minimum activities comparable to the basic pentapeptide of Example I |
| CC[C@H](C)[C@H](NC(=O)[C@H](CC(N)=O)NC(=O)[C@@H](N)Cc1ccc(O)cc1)C(=O)N[C@@H](CCC(N)=O)C(=O)N[C@@H](CCCCN)C(N)=O [Example IV, H2 N-TYR-ASN-ILE-GLN-LYS-CONH2] (H-YNIQK-NH2) |  | activity relative to the basic pentapeptide of Example I ([2]; 1 μg/ml in 6% Twomey solution): activity comparable to the basic pentapeptide of Example I |
| CC[C@H](C)[C@H](NC(=O)[C@H](C)NC(=O)[C@@H](N)Cc1ccc(O)cc1)C(=O)N[C@@H](CCC(N)=O)C(=O)N[C@@H](CCCCN)C(=O)O [Example XXIII, H2 N-TYR-ALA-ILE-GLN-LYS-COOH] (H-YAIQK-OH) | 15 |  |
